Data published in patent US20100272642A1, “PET PROBE HAVING AN ALKOXY GROUP SUBSTITUTED BY FLUORINE AND HYDROXY GROUP” (TOHOKU UNIVERSITY, priority 2007, published 2010).
“Also recorded” adds a separate entry of the source.

Tests used:
[1] = Evaluation of blood-brain barrier permeability and osseous accumulation of the [18F] labeled compound in mice; type: in vivo, mouse; settings: for % ID/g or ml (mean ± standard deviation), Blood plasma / % ID/g or ml (mean ± standard deviation), Bone / % ID/g or ml (mean ± standard deviation), Brain: male ICR mice, tail vein administration; for % ID/g or ml (mean ± standard deviation), Bone: bone (femur); for osseous accumulation: mice, 2, 30, 60 minutes after administration, in words; for wash-out from the brain / defluorination in vivo: mice; for wash-out from the brain: compared with [18F]BF-227; for defluorination in vivo: suggested from osseous accumulation
Procedure: The physiological saline solution containing [^18F] BF-837 or [^18F] THK-853 was administered into the tail vein of the male ICR mice (6-7 weeks of age), and blood-brain barrier permeability and osseous accumulation of each labeled compound were evaluated based on accumulation of radioactive in the brain tissue and the bone tissue at 2, 30, 60 minutes after.
The radiochemical purity of the used physiological saline containing the labeled compound used was 95% or greater, and specific activity was 18.5 to 148 GBq/μmol, and 1.11-2.22 MBq of the labeled compound per mouse was administered. In the evaluation of radiation accumulation, the ratio of radiation per unit weight of the evaluation tissue against the whole radiation administered (% Injected Dose/g of tissue; % ID/g) was used as the index. For measurement of the radiation, the gamma counter (1480 WIZARD, PerkinElmer, Inc.) was used. The experimental procedure was as follows. The labeled compound was administered into the caudal vein and dislocation in the cervical spine of the mice was conducted under the ether anesthesia at 2, 30, and 60 minutes after, and after promptly harvesting the blood from the heart, the whole brain (including the cerebellum, brain stem) and the femur were removed.

amyloid β protein = target: T1, amyloid β protein (Homo sapiens, UniProt P05067); assay: Staining test on the brain section of patients with Alzheimer's disease; type: binding; settings: 100 μM compound in 50% ethanol, 10 minutes, fluorescence microscope
T1 construct: tissue Choju Medical Institute in Fukushimura Hospital; host or cells: Paraffin-embedded post-mortem human brain sections (temporal lobe or hippocampus)
T1 sequence (P05067 672-713 limits assumed): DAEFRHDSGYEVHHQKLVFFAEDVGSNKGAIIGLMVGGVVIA
Text: The procedure of […] of the compounds of the present invention on the brain section of patients with Alzheimer's disease is explained as follows.
(1) The brain samples from the temporal lobe or hippocampus of patients pathologically definitely diagnosed as having Alzheimer's disease and normal elderly individuals were used. The samples were obtained from Choju Medical Institute in Fukushimura Hospital, our collaborative research institute, and the consent for the use for research purpose was obtained from the patients' deceased family members (Fukushimura Hospital, Ethic Committee Approval No. 20).
(2) The brain tissue embedded in the paraffin was thinly sectioned into 6 or 8 μm in thickness, extended on the slide glass, and dried. The paraffined brain section was deparaffined by washing with xylene 10 minutes×2, 100% ethanol 5 minutes×2, 90% ethanol 5 minutes, and running water 10 minutes in this order.
(3) As the pretreatment of staining by the compound of the present invention, the treatment to remove autofluorescence by lipofuscin was conducted. […]
(4) From 100 μM of the compound solution of the present invention dissolved in 50% ethanol, about 150 μl was added dropwise, and was reacted for 10 minutes. After being soaked in the tap water 5 times, it was encapsulated with Flour Save Reagent (Calbiochem) and examined with a fluorescence microscope (Nikon, Eclipse 80i). […]

Compound	% ID/g or ml (mean ± standard deviation), Blood plasma ([1]; 2 minutes after)	% ID/g or ml (mean ± standard deviation), Blood plasma ([1]; 30 minutes after)	% ID/g or ml (mean ± standard deviation), Blood plasma ([1]; 60 minutes after)	% ID/g or ml (mean ± standard deviation), Bone ([1]; 2 minutes after)	% ID/g or ml (mean ± standard deviation), Bone ([1]; 30 minutes after)	% ID/g or ml (mean ± standard deviation), Bone ([1]; 60 minutes after)	% ID/g or ml (mean ± standard deviation), Brain ([1]; 2 minutes after)	% ID/g or ml (mean ± standard deviation), Brain ([1]; 30 minutes after)	% ID/g or ml (mean ± standard deviation), Brain ([1]; 60 minutes after)	osseous accumulation [1]	wash-out from the brain [1]	defluorination in vivo [1]	binding to amyloid β protein in the brain section (amyloid β protein)
CNc1ccc(/C=C/c2ccc(OC(CO)CF)cc2)cc1 (stereo not shown) [[^18F]THK-853]	2.81 ± 0.37 % ID/g or ml	2.11 ± 0.50 % ID/g or ml	1.59 ± 0.12 % ID/g or ml	1.64 ± 0.19 % ID/g or ml	0.98 ± 0.20 % ID/g or ml	0.96 ± 0.04 % ID/g or ml	7.56 ± 0.87 % ID/g or ml	1.31 ± 014 % ID/g or ml	0.59 ± 0.04 % ID/g or ml	not observed; also recorded: scarcely observed	clearly more excellent	not subjected to defluorination	
CNc1ccc(-c2nc3ccc(OC(CO)CF)cc3s2)cc1 (stereo not shown) [[^18F]THK-837]	3.30 ± 0.17 % ID/g or ml	1.73 ± 0.26 % ID/g or ml	1.35 ± 0.77 % ID/g or ml	1.80 ± 0.17 % ID/g or ml	1.27 ± 0.11 % ID/g or ml	1.64 ± 0.12 % ID/g or ml	6.54 ± 0.19 % ID/g or ml	0.94 ± 0.08 % ID/g or ml	0.43 ± 0.03 % ID/g or ml	not observed; also recorded: scarcely observed	clearly more excellent	not subjected to defluorination	
CNc1ccc(/C=C/c2ccc(OC(CO)CF)cc2)cc1 (stereo not shown) [THK-853]													bound to amyloid β protein
CN(C)c1ncc(C=Cc2nc3ccc(OCCF)cc3o2)s1 [[^18F]BF-227, 2-[2-(2-dimethylaminothiazole-5-yl)ethenyl]-6-(2-fluoroethoxy)benzoxazole, reference compound]	2.93 ± 0.08 % ID/g or ml	2.14 ± 0.17 % ID/g or ml	2.09 ± 0.15 % ID/g or ml	1.59 ± 0.27 % ID/g or ml	4.38 ± 1.24 % ID/g or ml	7.04 ± 0.75 % ID/g or ml	6.05 ± 0.45 % ID/g or ml	1.91 ± 0.05 % ID/g or ml	1.67 ± 0.14 % ID/g or ml	time dependence marked accumulation was observed		easily subjected to defluorination	
CNc1ccc(-c2nc3ccc(OC(CO)CF)cc3s2)cc1 (stereo not shown) [THK-837]													bound to amyloid β protein
